Assay results: patent publication US20020055528A1, “Artemisinin analogs having antimalarial, antiproliferative, and antitumor activities and chemoselective methods of making the same” (priority 1999, published 2002)

Tests used:
Type in all cases: cell-based
COLO 205 = experiment: NCI 60 cell line screen (SRB), Colon Cancer
BT-549 = experiment: NCI 60 cell line screen (SRB), Breast Cancer
RPMI-8226 = experiment: NCI 60 cell line screen (SRB), Leukemia; conditions: for Log10TGI: PG=0
MALME-3M = experiment: NCI 60 cell line screen (SRB), Melanoma; conditions: for Log10TGI: PG=0; for Log10GI50: Table IV (LC50, PG=−50)
HL-60(TB) = experiment: NCI 60 cell line screen (SRB), Leukemia; conditions: for Log10TGI: PG=0
RXF 393 = experiment: NCI 60 cell line screen (SRB), Renal Cancer; conditions: for Log10TGI: PG=0
EKVX = experiment: NCI 60 cell line screen (SRB), Non-Small Cell Lung Cancer
OVCAR-8 = experiment: NCI 60 cell line screen (SRB), Ovarian Cancer
IGROVI = experiment: NCI 60 cell line screen (SRB), Ovarian Cancer; conditions: for Log10TGI: PG=0
ACHN = experiment: NCI 60 cell line screen (SRB), Renal Cancer; conditions: PG=0
KM12 = experiment: NCI 60 cell line screen (SRB), Colon Cancer; conditions: for Log10TGI: PG=0
786-0 = experiment: NCI 60 cell line screen (SRB), Renal Cancer; conditions: for Log10TGI: PG=0
PC-3 = experiment: NCI 60 cell line screen (SRB), Prostate Cancer; conditions: PG=0
UACC-257 = experiment: NCI 60 cell line screen (SRB), Melanoma; conditions: PG=0
U251 = experiment: NCI 60 cell line screen (SRB), CNS Cancer; conditions: for Log10TGI: PG=0
HOP-62 = experiment: NCI 60 cell line screen (SRB), Non-Small Cell Lung Cancer
NCI-H522 = experiment: as above; conditions: for Log10TGI: PG=0
MDA-N = experiment: NCI 60 cell line screen (SRB), Breast Cancer; conditions: for Log10TGI: PG=0
HCT-116 = experiment: NCI 60 cell line screen (SRB), Colon Cancer; conditions: PG=0
SNB-75 = experiment: NCI 60 cell line screen (SRB), CNS Cancer; conditions: PG=0
HCT-15 = experiment: NCI 60 cell line screen (SRB), Colon Cancer; conditions: PG=0
[1] = tested on: MB231/ATCC (second line of the wrapped label, with values of its own); experiment: NCI 60 cell line screen (SRB), Breast Cancer
OVCAR-4 = experiment: NCI 60 cell line screen (SRB), Ovarian Cancer
DU-145 = experiment: NCI 60 cell line screen (SRB), Prostate Cancer
LOX IMVI = experiment: NCI 60 cell line screen (SRB), Melanoma
CAKI-1 = experiment: NCI 60 cell line screen (SRB), Renal Cancer; conditions: Table IV (LC50, PG=−50)

Q: What does the source list for C[C@@H]1CC[C@H]2[C@@H](C)C(=O)O[C@@H]3O[C@]4(C)CC[C@@H]1[C@]32OO4 [Artemisinin, artemisinin]?
A: Log10TGI (COLO 205; PG=0): >−4.00 log10M; Log10GI50 (COLO 205; PG=+50): >−4.00 log10M; Log10GI50 (COLO 205; Table IV (LC50, PG=−50)): >−4.00 log10M; Log10TGI (BT-549; PG=0): >−4.00 log10M; Log10GI50 (BT-549; Table IV (LC50, PG=−50)): >−4.00 log10M; Log10TGI (RPMI-8226): >−4.00 log10M; Log10GI50 (RPMI-8226; PG=+50): >−4.00 log10M; Log10GI50 (RPMI-8226; Table IV (LC50, PG=−50)): >−4.00 log10M; Log10TGI (MALME-3M): −4.06 log10M; Log10GI50 (MALME-3M): >−4.00 log10M; Log10TGI (HL-60(TB)): −4.00 log10M; Log10GI50 (HL-60(TB); PG=+50): −4.26 log10M; Log10GI50 (HL-60(TB); Table IV (LC50, PG=−50)): >−4.00 log10M; Log10TGI (RXF 393): >−4.00 log10M; Log10GI50 (RXF 393; PG=+50): −4.08 log10M; Log10GI50 (RXF 393; Table IV (LC50, PG=−50)): >−4.00 log10M; Log10TGI (EKVX; PG=0): >−4.00 log10M; Log10GI50 (EKVX; PG=+50): −4.17 log10M; Log10GI50 (EKVX; Table IV (LC50, PG=−50)): >−4.00 log10M; Log10TGI (OVCAR-8; PG=0): >−4.00 log10M; Log10GI50 (OVCAR-8; PG=+50): >−4.00 log10M; Log10GI50 (OVCAR-8; Table IV (LC50, PG=−50)): >−4.00 log10M; Log10TGI (IGROVI): >−4.00 log10M; Log10GI50 (IGROVI; PG=+50): −4.31 log10M; Log10GI50 (IGROVI; Table IV (LC50, PG=−50)): >−4.00 log10M; Log10TGI (ACHN): >−4.00 log10M; Log10TGI (KM12): >−4.00 log10M; Log10GI50 (KM12; PG=+50): >−4.00 log10M; Log10GI50 (KM12; Table IV (LC50, PG=−50)): >−4.00 log10M; Log10TGI (786-0): >−4.00 log10M; Log10GI50 (786-0; PG=+50): >−4.00 log10M; Log10GI50 (786-0; Table IV (LC50, PG=−50)): >−4.00 log10M; Log10TGI (PC-3): −4.00 log10M; Log10TGI (UACC-257): >−4.00 log10M; Log10TGI (U251): >−4.00 log10M; Log10GI50 (U251; PG=+50): >−4.00 log10M; Log10GI50 (U251; Table IV (LC50, PG=−50)): >−4.00 log10M; Log10TGI (HOP-62; PG=0): >−4.00 log10M; Log10GI50 (HOP-62; PG=+50): >−4.00 log10M; Log10GI50 (HOP-62; Table IV (LC50, PG=−50)): >−4.00 log10M; Log10TGI (NCI-H522): >−4.00 log10M; Log10GI50 (NCI-H522; PG=+50): >−4.00 log10M; Log10GI50 (NCI-H522; Table IV (LC50, PG=−50)): >−4.00 log10M; Log10TGI (MDA-N): −4.00 log10M; Log10GI50 (MDA-N; PG=+50): −4.06 log10M; Log10GI50 (MDA-N; Table IV (LC50, PG=−50)): >−4.00 log10M; Log10TGI (HCT-116): >−4.00 log10M; Log10TGI (SNB-75): >−4.00 log10M; Log10TGI (HCT-15): >−4.00 log10M; Log10TGI ([1]; PG=0): >−4.00 log10M; Log10GI50 ([1]; PG=+50): >−4.00 log10M; Log10GI50 ([1]; Table IV (LC50, PG=−50)): >−4.00 log10M

Q: With CC(=O)O[C@H]1C(=O)[C@@]2(C)[C@H]([C@H](OC(=O)c3ccccc3)[C@]3(O)C[C@H](OC(=O)[C@H](O)[C@@H](NC(=O)c4ccccc4)c4ccccc4)C(C)=C1C3(C)C)[C@]1(OC(C)=O)CO[C@@H]1C[C@@H]2O [Paclitaxel, paclitaxel, reference compound] as the compound, how does the Log10GI50 (COLO 205; PG=+50) read?
A: −11.07 log10M

Q: What about the Log10GI50 (COLO 205; Table IV (LC50, PG=−50)) of the same compound?
A: >−4.41 log10M

Q: What about the Log10GI50 (BT-549; PG=+50) of the same compound?
A: −9.81 log10M

Q: What about the Log10TGI (RPMI-8226) of the same compound?
A: <-13.00 log10M

Q: What about the Log10GI50 (RPMI-8226; PG=+50) of the same compound?
A: <−13.00 log10M

Q: And the Log10GI50 (RPMI-8226; Table IV (LC50, PG=−50))?
A: >−4.00 log10M

Q: And the Log10TGI (MALME-3M)?
A: −4.46 log10M

Q: What about the Log10GI50 (MALME-3M) of the same compound?
A: −4.11 log10M

Q: And the Log10TGI (HL-60(TB))?
A: −11.57 log10M

Q: And the Log10GI50 (HL-60(TB); PG=+50)?
A: −11.57 log10M

Q: What about the Log10GI50 (HL-60(TB); Table IV (LC50, PG=−50)) of the same compound?
A: >−4.53 log10M

Q: And the Log10TGI (RXF 393)?
A: >−4.00 log10M

Q: And the Log10GI50 (RXF 393; PG=+50)?
A: −8.32 log10M

Q: And the Log10GI50 (RXF 393; Table IV (LC50, PG=−50))?
A: >−4.00 log10M

Q: What about the Log10GI50 (OVCAR-4; OVCAR-4, PG=+50) of the same compound?
A: −5.00 log10M

Q: And the Log10TGI (OVCAR-4; OVCAR−4, PG=0)?
A: −4.19 log10M

Q: What about the Log10GI50 (OVCAR-4; Table IV (LC50, PG=−50), OVCAR−4) of the same compound?
A: >−4.00 log10M

Q: What about the Log10GI50 (OVCAR-8; PG=+50) of the same compound?
A: −10.75 log10M

Q: What about the Log10GI50 (OVCAR-8; Table IV (LC50, PG=−50)) of the same compound?
A: >−4.00 log10M

Q: What about the Log10TGI (IGROVI) of the same compound?
A: −4.19 log10M

Q: And the Log10GI50 (IGROVI; PG=+50)?
A: −8.61 log10M

Q: What about the Log10GI50 (IGROVI; Table IV (LC50, PG=−50)) of the same compound?
A: >−4.00 log10M

Q: And the Log10TGI (ACHN)?
A: −4.90 log10M

Q: And the Log10TGI (KM12)?
A: −4.36 log10M

Q: And the Log10GI50 (KM12; PG=+50)?
A: −11.43 log10M

Q: And the Log10GI50 (KM12; Table IV (LC50, PG=−50))?
A: >−4.00 log10M

Q: And the Log10TGI (786-0)?
A: >−4.00 log10M

Q: And the Log10GI50 (786-0; PG=+50)?
A: −8.01 log10M

Q: And the Log10GI50 (786-0; Table IV (LC50, PG=−50))?
A: >−4.00 log10M

Q: What about the Log10TGI (PC-3) of the same compound?
A: >−4.00 log10M

Q: And the Log10TGI (UACC-257)?
A: −4.52 log10M

Q: What about the Log10TGI (U251) of the same compound?
A: −4.32 log10M

Q: And the Log10GI50 (U251; PG=+50)?
A: −11.29 log10M

Q: What about the Log10GI50 (U251; Table IV (LC50, PG=−50)) of the same compound?
A: −4.15 log10M

Q: What about the Log10GI50 (HOP-62; PG=+50) of the same compound?
A: −9.67 log10M

Q: And the Log10TGI (NCI-H522)?
A: −4.92 log10M

Q: What about the Log10GI50 (NCI-H522; PG=+50) of the same compound?
A: <−13.00 log10M

Q: And the Log10GI50 (NCI-H522; Table IV (LC50, PG=−50))?
A: >−4.00 log10M

Q: What about the Log10TGI (MDA-N) of the same compound?
A: −6.32 log10M

Q: What about the Log10GI50 (MDA-N; PG=+50) of the same compound?
A: −9.31 log10M

Q: What about the Log10GI50 (MDA-N; Table IV (LC50, PG=−50)) of the same compound?
A: >−4.00 log10M

Q: What about the Log10TGI (DU-145; PG=0) of the same compound?
A: >−4.00 log10M

Q: What about the Log10GI50 (DU-145; PG=+50) of the same compound?
A: −9.38 log10M

Q: What about the Log10GI50 (DU-145; Table IV (LC50, PG=−50)) of the same compound?
A: >−4.00 log10M

Q: And the Log10TGI (HCT-116)?
A: −4.82 log10M

Q: What about the Log10TGI (LOX IMVI; PG=0) of the same compound?
A: −4.65 log10M

Q: And the Log10GI50 (LOX IMVI; PG=+50)?
A: −11.80 log10M

Q: And the Log10GI50 (LOX IMVI; Table IV (LC50, PG=−50))?
A: −4.15 log10M

Q: What about the Log10GI50 (CAKI-1) of the same compound?
A: >−4.00 log10M

Q: What about the Log10TGI (HCT-15) of the same compound?
A: >−4.00 log10M
